# Measurements from patent US20160000750A1, “COMBINATION OF EGCG OR METHYLATED EGCG AND A PDE INHIBITOR” (KYUSHU UNIVERSITY, NATIONAL UNIVERSITY CORPORATION, priority 2010, published 2016).
# Tests used:
# [1] = test system: human multiple myeloma cell line, U266; assay: Apoptosis induction by Annexin V PI double staining, U266; assay type: cell-based; conditions: vardenafil 5 μM, EGCG 5 μM, 96 hours
# Description: (§1) A propidium iodide (PI) staining solution was prepared by suspending PI (Sigma Corporation) in PBS at a concentration of 50 μg/mL and was used in investigation of the anti-cancer activity of a combination of EGCG and vardenafil by Annexin V PI double staining. The PBS used was prepared by dissolving 8.0 g of NaCl, 0.2 g of KCl, 1.15 g of Na2HPO4, and 0.2 g of KH2PO4 in 1 L of ultrapure water, followed by autoclave sterilization. The Annexin V Binding Buffer used was prepared with 10 mM HEPES, 140 mM NaCl, and 2.5 mM CaCl2 (Wako Pure Chemical Industries, Ltd.) to be pH 7.4, followed by filter sterilization.
# (§2) Cell lines, U266 and HL60, adjusted to be 5×10^4 cells/mL (U266) and 1×10^4 cells/mL (HL60), respectively, in an RPMI 1640 medium supplemented with 1% FCS were seeded in a 96-well plate. […]
# (§3) The plate was returned to the incubator immediately after the addition of EGCG, followed by culturing for 96 hours. […] The supernatant was removed, and the cells were suspended in an Annexin V Binding uffer, and the number of the cells was counted with a hemocytometer. […] Subsequently, 400 μL of an Annexin V Binding Buffer was added thereto from above, and the cells were counted with a flow cytometer, FACS Caliber (Becton, Dickinson and Company). After compensation, the Annexin V Alexa Fluor 488 Conjugate was measured at FL 1, and the cells deemed to be positive were determined as apoptotic cells. […]
# [2] = test system: acute myeloid leukemia cell line, HL60; assay: Apoptosis induction by Annexin V PI double staining, HL60; assay type: cell-based, human; conditions: vardenafil 5 μM, EGCG 5 μM, 96 hours
# Description: as §1, §2, §3
# [3] = anti-67LR antibody MLuc5 20 μg/mL
substance,measurement,setting,value
(−)-epigallocatechin-3-O-gallate [EGCG],apoptosis-inducing activity (apoptotic cell ratio),[1]; Annexin V PI double staining,apoptosis was induced
same,apoptosis-inducing activity under treatment with anti-67LR antibody,[1]; [3],completely cancelled
same,apoptosis-inducing activity (apoptotic cell ratio),[2]; Annexin V PI double staining,apoptosis was induced
same,apoptosis-inducing activity under treatment with anti-67LR antibody,[2]; [3],completely cancelled
